The target of one assay is T1, GABAB receptor (Mus musculus, UniProt Q80T41+Q9WV18).
T1 construct: a mouse brain cortex membrane (4 μg); tissue Japan SLC, Inc. (ddY mice); host or cells: mouse brain cortex membrane
Nature of the assay: [35S]GTPγS binding test for PAM action, mouse brain cortical membrane. The format is biochemical. As to conditions: 100 μM GABA = 100%; for EC50: concentration raising reaction rate from 20% with 0.3 μM GABA to 50%, mouse brain cortex membrane, read-out: Potency (PAM Potency of GABAB). Here is the method:
The function of the GABAB receptor of the compound of the present invention was evaluated using a [^35S] GTPγS binding test. This method is used for the detection of the PAM action of the compound on the GABAB receptor (Journal of Pharmacology and Experimental Therapeutics, 2003, vol. 307(1), p. 322-330; and Molecular Pharmacology, 2001, vol. 60(5), p. 963-971).
The mouse brain cortical membrane was prepared with reference to a method for preparing a rat brain membrane (European Journal of Pharmacology, 1990, vol. 187 (1), p. 27-38).
The cortex (about 30 g) was cut out of the brains of 90 ddY mice (Japan SLC, Inc.). An A buffer was added to the cortex (cortex/A buffer=about 1:3 (wt/vol)), and homogenized with a glass Teflon-lined homogenizer (Teflon: registered trademark) on ice. The homogenate was centrifuged (750 g, 10 min, 4° C.) and a supernatant was then obtained. An A buffer (90 mL) was added to pellets and homogenized on ice, and a supernatant (750 g, 10 min, 4° C.) was then obtained. By repeating this operation, the supernatant was collected.
The supernatant was centrifuged (18000 g, 15 min, 4° C.). Ultrapure water (54 mL) was added to the pellets, left to stand for 30 min on ice, and then centrifuged (39000 g, 20 min, 4° C.). The pellets were suspended in a KH buffer (54 mL), repeatedly frozen and thawed, and centrifuged (18000 g, 15 min) at 4° C. The buffer was added to the pellets and then frozen and thawed, and this operation was repeated until the centrifugation. By a Bradford method using a protein assay (Protein assay CBB solution; Nacalai Tesque, Inc.), a KH buffer suspension of the pellet was prepared at a protein concentration of 10 mg/mL.
The PAM action of the GABAB receptor in the mouse brain cortex of a test drug was evaluated. To each of wells of a 96-well microplate, a test drug diluted with a B buffer at each concentration (3 nM to 30 μM), a mouse brain cortex membrane (4 μg), [^35S] GTPγS (final concentration of 0.34 nM, Muromachi Yakuhin Co., Ltd.; Institute of Isotopes Co., Ltd.), GABA (final concentration of 0.3 μM; Sigma) were added in this order, followed by standing at room temperature for 1 hour. With a harvester (Filtermate, Perkin-Elmer, Inc.), the suspension was suction-filtered through a glass filter (UniFilter 96-well GF/B filter plates, Perkin-Elmer, Inc.). The glass filter was washed with a C buffer that had been ice-cooled. After drying the glass filter, a liquid scintillation cocktail (50 μL, MicroScinti-PS; PerkinElmer, Inc.) was added to each well. The amount of [^35S] GTPγS bound to the membrane was measured on a plate reader (TopCount, PerkinElmer, Inc.).
The maximum reaction rate of 100 μM GABA was taken as 100%. […] At a time when the test drug was not added, the concentration of the test drug that increased the reaction rate from 20% with 0.3 μM GABA to 50% was taken as a PAM Potency (μM) of the GABAB of the test drug. In the presence of 0.3 μM GABA, the maximum reaction rate of the effect on the GABAB receptor when the test drug was administered up to maximum 30 μM was taken as a PAM Efficacy (%) of the GABAB of the test drug.
The Potency and Efficacy of several representative Example Compounds of the present invention are shown in Table below (In the Table, Ex represents Example Compound No. The “Potency” represents the PAM Potency of GABAB of the test drug, and the “Efficacy” represents PAM Efficacy (%) of GABAB of the test drug. These shall apply hereinafter).

In assay [1] the test system is spontaneous alternation behavior (short-term memory impairment). Nature of the assay: Y-maze test: improvement effect on MK-801-induced cognitive impairment. Type of assay: in vivo, mouse. As to conditions: oral, once, 30 minutes before test; ddY male mice; MK-801 0.15 mg/kg i.p.; spontaneous alternation rate. Here is the method: The effect on the improvement of short-term memory impairment of the compound of the present invention was evaluated using a Y-maze test that is an experimental system of spontaneous alternation behavior.
As the Y maze, a maze, in which three runways having a length of one arm of 40 cm, a height of a wall of 13 cm, a width of a floor of 3 cm, and a width of a top of 10 cm are each joined at 120 degrees in a Y shape, was used. […]
The mouse was placed at one end of a certain place in the runway in the Y maze, and then freely explored for 8 minutes, and the runways into which the mice invaded and the order thereof were recorded. The number of the entries of the mice within a measurement time was counted and defined as a total number of entries. Among these, a combination when the mice invaded into different three runways (for example, in a case where the three arms are referred to as a, b, and c, respectively, and the order of the arms with entries is abccbacab, the number was counted as 4, including the repetition) was defined as the number of spontaneous alternation behaviors. For the spontaneous alternation rate, a spontaneous alternation rate calculated by the following equation was taken as an index of spontaneous alternation behavior: Spontaneous alternation rate=number of spontaneous alternation behaviors/(total number of entries−2)×100. […]

Each structure is given as a SMILES string.

T1 sequence (Q9WV18 20-960): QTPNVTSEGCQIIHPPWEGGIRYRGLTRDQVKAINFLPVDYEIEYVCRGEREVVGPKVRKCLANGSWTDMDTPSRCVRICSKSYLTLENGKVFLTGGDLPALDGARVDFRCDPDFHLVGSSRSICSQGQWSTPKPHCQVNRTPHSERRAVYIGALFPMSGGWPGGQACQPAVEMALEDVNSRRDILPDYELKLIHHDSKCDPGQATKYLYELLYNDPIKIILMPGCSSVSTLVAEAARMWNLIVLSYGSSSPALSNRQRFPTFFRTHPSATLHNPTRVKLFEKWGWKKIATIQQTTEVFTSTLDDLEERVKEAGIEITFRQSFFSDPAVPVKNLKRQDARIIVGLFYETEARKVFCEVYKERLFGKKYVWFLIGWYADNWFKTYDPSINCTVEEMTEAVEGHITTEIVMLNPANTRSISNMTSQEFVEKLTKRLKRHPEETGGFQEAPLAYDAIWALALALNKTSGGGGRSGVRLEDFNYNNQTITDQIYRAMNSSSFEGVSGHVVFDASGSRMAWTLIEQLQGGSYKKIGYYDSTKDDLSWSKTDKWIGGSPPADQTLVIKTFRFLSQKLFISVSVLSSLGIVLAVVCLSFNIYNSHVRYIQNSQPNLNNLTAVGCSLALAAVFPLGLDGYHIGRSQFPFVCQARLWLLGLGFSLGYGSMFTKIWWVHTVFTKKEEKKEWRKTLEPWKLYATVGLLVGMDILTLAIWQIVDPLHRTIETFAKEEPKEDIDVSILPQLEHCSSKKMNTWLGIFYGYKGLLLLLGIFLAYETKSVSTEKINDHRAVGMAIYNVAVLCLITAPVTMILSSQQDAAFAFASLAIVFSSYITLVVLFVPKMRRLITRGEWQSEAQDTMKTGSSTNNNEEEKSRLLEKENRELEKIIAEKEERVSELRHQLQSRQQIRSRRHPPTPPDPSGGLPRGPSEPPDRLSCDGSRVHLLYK
T1 sequence (Q80T41 41-940): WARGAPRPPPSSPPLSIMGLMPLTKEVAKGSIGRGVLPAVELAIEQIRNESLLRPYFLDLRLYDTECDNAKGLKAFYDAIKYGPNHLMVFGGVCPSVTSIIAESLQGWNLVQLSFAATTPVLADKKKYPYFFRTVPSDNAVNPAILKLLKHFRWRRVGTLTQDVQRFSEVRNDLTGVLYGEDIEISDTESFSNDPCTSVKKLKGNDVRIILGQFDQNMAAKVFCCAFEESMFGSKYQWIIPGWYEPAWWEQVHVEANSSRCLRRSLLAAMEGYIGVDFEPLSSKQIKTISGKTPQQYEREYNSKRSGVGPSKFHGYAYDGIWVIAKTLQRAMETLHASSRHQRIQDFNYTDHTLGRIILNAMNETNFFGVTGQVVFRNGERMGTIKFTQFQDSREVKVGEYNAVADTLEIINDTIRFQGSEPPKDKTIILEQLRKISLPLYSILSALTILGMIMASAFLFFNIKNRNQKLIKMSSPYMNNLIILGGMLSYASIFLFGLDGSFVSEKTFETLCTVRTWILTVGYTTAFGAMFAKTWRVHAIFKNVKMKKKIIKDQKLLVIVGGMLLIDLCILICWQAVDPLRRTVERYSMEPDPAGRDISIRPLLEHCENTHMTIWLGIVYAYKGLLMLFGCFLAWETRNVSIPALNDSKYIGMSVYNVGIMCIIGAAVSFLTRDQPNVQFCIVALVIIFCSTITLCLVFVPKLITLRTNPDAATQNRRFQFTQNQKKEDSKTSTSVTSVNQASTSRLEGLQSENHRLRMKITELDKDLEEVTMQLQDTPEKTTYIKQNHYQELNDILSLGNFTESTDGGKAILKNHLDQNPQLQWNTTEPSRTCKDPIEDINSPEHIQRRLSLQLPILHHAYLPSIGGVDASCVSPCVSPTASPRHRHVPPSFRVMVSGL

`Cc1nc(CN2CCS(=O)(=O)CC2)c2cc(C3CCC(C)(C)CC3)sc2n1` [Ex2, 6-(4,4-dimethylcyclohexyl)-4-[(1,1-dioxidothiomorpholin-4-yl)methyl]-2-methylthieno[2,3-d]pyrimidine]: the EC50 at GABAB receptor was 110 nM. Also, the Emax on GABAB receptor (maximum reaction rate in presence of 0.3 μM GABA, test drug up to 30 μM, read-out: Efficacy (PAM Efficacy of GABAB)) worked out at 207%. Besides, the MED in assay [1] stood at 0.1 mg/kg.

On to `Cc1nc(CN2CC[C@@H](O)[C@H](O)C2)c2cc(C3CCC(C)(C)CC3)sc2n1` (single isomer, unassigned) [Ex31, trans-1-{[6-(4,4-dimethylcyclohexyl)-2-methylthieno[2,3-d]pyrimidin-4-yl]methyl}piperidine-3,4-diol], for which the EC50 at GABAB receptor was 110 nM. For the same compound, the “Efficacy (PAM Efficacy of GABAB)” value on GABAB receptor (maximum reaction rate in presence of 0.3 μM GABA, test drug up to 30 μM) is 300%. Besides, the MED in assay [1] is listed as 1.0 mg/kg.

The record behind these values is patent publication US9051339B2, “Sulfur-containing bicyclic compound” (Astellas Pharma Inc., priority 2013, dated 2015).
